Reference: patent US20240158418A1 (C4 Therapeutics, Inc., priority 2021, published 2024)
Like-named read-outs stand apart in the source and are kept apart here.

Tests used:
[1] = target: T1, EGFR L858R-T790M (Homo sapiens, UniProt P00533, L858R/T790M); assay: EGFR degradation, Total EGFR (L858R-specific) HTRF, NCI-H1975; format: cell-based; settings: 6 hours
T1 construct: NCI-H1975 (harboring EGFR heterozygous L858R-T790M mutations); host or cells: NCI-H1975
Method in brief: (§1)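 HTRF read-outs: pY1068 phospho-EGFR for IC50; total EGFR (pan-EGFR in A431, L858R-specific in mutant lines) for DC50. Compounds were titrated 11 points, half-log, from 10 μM in duplicate onto cells in 10% FBS RPMI, incubated 6 h at 37°C.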

[2] = target: T2, EGFR L858R-T790M-C797S (Homo sapiens, UniProt P00533, C797S/L858R/T790M); assay: EGFR degradation, Total EGFR (L858R-specific) HTRF, NCI-H1975+CS; format: cell-based; settings: H1975 + CS (L858R-T790M-C797S), 6 hours; read-out: tEGFR DC50
T2 construct: generated using CRISPR technology to introduce the additional C797S mutation by Horizon Discovery; host or cells: NCI-H1975+CS (CRISPR knock-in of C797S)
T2 sequence (P00533 25-1210 T790M/C797S/L858R): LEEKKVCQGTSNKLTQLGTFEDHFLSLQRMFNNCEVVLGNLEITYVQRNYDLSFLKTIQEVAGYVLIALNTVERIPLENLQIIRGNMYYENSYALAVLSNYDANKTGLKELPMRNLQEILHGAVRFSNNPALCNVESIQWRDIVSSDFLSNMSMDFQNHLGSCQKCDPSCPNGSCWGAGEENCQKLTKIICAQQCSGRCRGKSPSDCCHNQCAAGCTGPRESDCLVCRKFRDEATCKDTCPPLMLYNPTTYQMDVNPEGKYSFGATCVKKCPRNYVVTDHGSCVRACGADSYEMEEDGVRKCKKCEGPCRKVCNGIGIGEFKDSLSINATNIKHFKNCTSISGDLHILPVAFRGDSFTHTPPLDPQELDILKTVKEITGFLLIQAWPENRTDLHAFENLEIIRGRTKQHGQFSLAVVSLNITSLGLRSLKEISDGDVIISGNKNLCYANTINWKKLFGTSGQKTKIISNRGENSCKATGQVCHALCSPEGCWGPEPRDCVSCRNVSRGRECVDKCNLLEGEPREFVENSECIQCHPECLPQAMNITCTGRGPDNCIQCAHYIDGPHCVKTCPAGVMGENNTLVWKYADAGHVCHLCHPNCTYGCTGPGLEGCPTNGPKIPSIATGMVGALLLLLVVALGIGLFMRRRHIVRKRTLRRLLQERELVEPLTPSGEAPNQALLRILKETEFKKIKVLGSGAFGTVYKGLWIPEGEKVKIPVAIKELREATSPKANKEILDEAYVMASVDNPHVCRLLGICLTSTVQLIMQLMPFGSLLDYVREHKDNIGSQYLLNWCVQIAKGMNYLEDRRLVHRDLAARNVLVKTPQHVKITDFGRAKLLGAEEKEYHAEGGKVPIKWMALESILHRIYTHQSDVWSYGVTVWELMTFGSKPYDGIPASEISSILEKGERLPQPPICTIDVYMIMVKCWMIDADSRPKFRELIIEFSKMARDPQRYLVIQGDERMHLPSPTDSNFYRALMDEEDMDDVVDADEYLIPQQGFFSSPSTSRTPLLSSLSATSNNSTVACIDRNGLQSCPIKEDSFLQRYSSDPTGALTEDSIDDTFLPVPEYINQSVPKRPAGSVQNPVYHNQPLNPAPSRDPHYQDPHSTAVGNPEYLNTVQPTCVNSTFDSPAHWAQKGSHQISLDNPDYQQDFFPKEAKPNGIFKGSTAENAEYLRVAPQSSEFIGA
Method in brief: as §1

[3] = target: T3, EGFR WT (Homo sapiens, UniProt P00533); assay: EGFR degradation, Total EGFR (pan-EGFR) HTRF, A431; format: cell-based; settings: A431 (wild-type), 6 hours; read-out: tEGFR DC50
T3 construct: A431 (harboring EGFR wildtype) was purchased from ATCC; host or cells: A431
Description: (§2) NCI-H1975 (harboring EGFR heterozygous L858R-T790M mutations) and NCI-H3255 (harboring EGFR heterozygous L858R mutation) were purchased from ATCC and NCI, respectively. NCI-H1975+CS (harboring EGFR heterozygous L858R-T790M-C797S mutations) was generated using CRISPR technology to introduce the additional C797S mutation by Horizon Discovery. A431 (harboring EGFR wildtype) was purchased from ATCC. RPMI 1640 no-phenol red medium and fetal bovine serum (FBS) were purchased from Gibco (Grand Island, NY, USA). Cell culture flasks and 384-well microplates were acquired from VWR (Radnor, PA, USA). Phosphorylated (pY1068) EGFR and Total EGFR (using L858R-specific detection antibody and pan-EGFR antibody for EGFR mutant cell lines and EGFR wild-type cell lines, respectively) HTRF assay kits were purchased from Cisbio (Bedford, MA, USA).
(§3) Degradation of EGFR protein containing L858R mutation or wild-type was determined based on quantification of FRET signal using a Total EGFR (L858R-specific or pan-EGFR detecting) HTRF assay kit. Phospho-EGFR (pEGFR) inhibition was determined based on quantification of FRET signal using a pY1068 EGFR HTRF assay kit. In separate assay plates, test compounds were added to the 384-well plate from a top concentration of 10 μM with 11 points, half log titration in duplicates. For each assay, 12.5 uL of cells suspended in assay media (RPMI 1640 no-phenol red medium+10% FBS) at cell densities indicated for each cell line in Table 8 below were dispensed using a multi-channel pipette to 384-well low volume white HTRF microplates containing a duplicate concentration range of test compounds and DMSO controls. The plates were kept at 37° C. with 5% CO2 for 6 hours and then incubated with either phospho EGFR or Total EGFR HTRF detection antibodies according to the cell line and EGFR mutant being assayed. Cells treated in the absence of the test compound were the negative control. Positive control was set by wells containing all reagents but no cells. FRET signal was acquired on EnVision™ Multilabel Reader (PerkinElmer, Santa Clara, CA, USA). Compound concentration that achieves 50% degradation and inhibition was reported as DC50 and IC50, respectively.

[4] = target: T4, pY1068 EGFR L858R-T790M (Homo sapiens, UniProt P00533, L858R/T790M); assay: Phospho-EGFR (pY1068) inhibition HTRF, NCI-H1975; format: cell-based; settings: 6 hours, read-out: pEGFR IC50
T4 construct: NCI-H1975 (harboring EGFR heterozygous L858R-T790M mutations); host or cells: NCI-H1975
T4 sequence (P00533 25-1210 T790M/L858R): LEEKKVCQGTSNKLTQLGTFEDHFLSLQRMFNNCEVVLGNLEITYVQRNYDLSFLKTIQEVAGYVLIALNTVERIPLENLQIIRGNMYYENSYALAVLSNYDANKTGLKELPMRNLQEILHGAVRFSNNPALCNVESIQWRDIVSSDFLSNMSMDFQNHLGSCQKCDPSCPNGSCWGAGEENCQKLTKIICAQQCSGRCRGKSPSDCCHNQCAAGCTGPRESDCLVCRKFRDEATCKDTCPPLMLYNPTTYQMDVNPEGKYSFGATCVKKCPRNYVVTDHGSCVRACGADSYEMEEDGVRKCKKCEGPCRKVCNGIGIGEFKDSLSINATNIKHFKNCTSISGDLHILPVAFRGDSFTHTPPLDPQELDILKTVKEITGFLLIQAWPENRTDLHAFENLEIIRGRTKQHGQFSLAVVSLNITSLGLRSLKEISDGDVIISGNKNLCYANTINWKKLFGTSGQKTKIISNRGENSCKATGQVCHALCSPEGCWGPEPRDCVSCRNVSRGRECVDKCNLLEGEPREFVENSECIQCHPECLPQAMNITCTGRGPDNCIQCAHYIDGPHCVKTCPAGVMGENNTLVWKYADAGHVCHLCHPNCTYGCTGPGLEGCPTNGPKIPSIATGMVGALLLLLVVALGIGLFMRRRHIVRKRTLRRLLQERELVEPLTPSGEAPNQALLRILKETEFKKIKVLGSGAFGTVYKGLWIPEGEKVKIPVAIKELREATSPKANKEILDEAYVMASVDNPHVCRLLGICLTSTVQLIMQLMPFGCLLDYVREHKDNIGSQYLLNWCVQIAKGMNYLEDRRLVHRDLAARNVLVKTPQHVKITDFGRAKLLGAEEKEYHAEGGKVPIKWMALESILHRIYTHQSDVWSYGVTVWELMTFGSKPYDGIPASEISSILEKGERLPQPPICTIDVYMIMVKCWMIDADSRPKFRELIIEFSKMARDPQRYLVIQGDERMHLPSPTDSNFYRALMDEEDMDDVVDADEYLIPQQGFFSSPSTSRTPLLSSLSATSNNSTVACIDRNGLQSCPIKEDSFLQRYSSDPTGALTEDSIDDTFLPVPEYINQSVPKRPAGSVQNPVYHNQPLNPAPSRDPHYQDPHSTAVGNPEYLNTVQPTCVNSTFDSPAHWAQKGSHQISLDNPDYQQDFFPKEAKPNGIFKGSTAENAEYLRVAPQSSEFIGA
Description: as §2, §3

[5] = target: T5, pY1068 EGFR L858R (Homo sapiens, UniProt P00533, L858R); assay: Phospho-EGFR (pY1068) inhibition HTRF, NCI-H3255; format: cell-based; settings: 6 hours, read-out: pEGFR IC50
T5 construct: NCI-H3255 (harboring EGFR heterozygous L858R mutation); host or cells: NCI-H3255
Description: as §2, §3

[6] = target: T6, pY1068 EGFR L858R-T790M-C797S (Homo sapiens, UniProt P00533, C797S/L858R/T790M); assay: Phospho-EGFR (pY1068) inhibition HTRF, NCI-H1975+CS; format: cell-based; settings: 6 hours, read-out: pEGFR IC50
T6 construct: generated using CRISPR technology to introduce the additional C797S mutation by Horizon Discovery; host or cells: NCI-H1975+CS (CRISPR knock-in of C797S)
T6 sequence (P00533 25-1210 T790M/C797S/L858R): as the sequence (P00533 25-1210 T790M/C797S/L858R) above
Description: as §2, §3

[7] = target: EGFR L858R (Homo sapiens, UniProt P00533, L858R); assay: EGFR degradation, Total EGFR (L858R-specific) HTRF, NCI-H3255; format: cell-based; parameters: NCI-H3255 (harboring EGFR heterozygous L858R mutation); host or cells: NCI-H3255; settings: H3255 (L858R), 6 hours; read-out: tEGFR DC50
Method in brief: as §1

[8] = tested on: BaF3 cells expressing EGFR L858R; assay: Ba/F3 EGFR cell viability (CellTiter-Glo), L858R; format: cell-based; settings: Mus musculus, read-out: CTGlo (GI50)
Description: (§4) RPMI 1640 media, cell culture flasks, and 384-well microplates were purchased from VWR (Radnor, PA, USA). Fetal bovine serum (FBS) was purchased from Life Technologies (Carlsbad, CA, USA) and CellTiter-Glo® was purchased from Promega (Madison, WI, USA). The Ba/F3 parental cell line was purchased from CrownBio (Santa Clara, CA). BaF3 cell lines ectopically expressing the EGFR mutations L858R, L858R-T790M, L858R-C797S, and L858R-T790M-C797S were purchased from CrownBio and EGFR mutations L858R-L718Q, L858R-T790M-L718Q, L858R-L792H, and L858R-T790M-L792H, were purchased from Signosis (Santa Clara, CA).
(§5) Cell viability was assessed based on the quantification of ATP using the CellTiter-Glo® assay (Promega, Madison, WI, USA). To determine the effect of compounds on cell viability, all Ba/F3 cell lines were plated at a cell density of 2000 cells/well in 384-well plates using RPMI 1640+10% FBS and treated with compounds of interest using a 10-point half-log dilution series in duplicate for 72 hours, with the highest dose set at […]. CellTiter-Glo® reagent was then added and luminescence signals were measured using an EnVision™ Multimode plate reader (Perkin Elmer, Santa Clara, CA). For data normalization, cells untreated with the test compounds at Time=72 hours were set to 100% (equivalent to maximal cell growth after 72 hours); cells untreated with the test compounds at Time=0 hours were set to 0% (equivalent to cytostasis); and media-only wells were set to −100% (equivalent to complete cytotoxicity). % Viability was determined by normalizing the signal with positive and DMSO treated negative controls on the same microtiter plate. The half-maximal inhibition of cell growth (GI50) is computed from where the fitted curve crosses 50% while the half-maximal lethal dose (LD50) is computed from where the fitted curve crosses −50%.

[9] = tested on: BaF3 cells expressing EGFR L858R-T790M; assay: Ba/F3 EGFR cell viability (CellTiter-Glo), L858R-T790M; format: cell-based; settings: Mus musculus, read-out: CTGlo (GI50)
Description: as §4, §5

[10] = tested on: BaF3 cells expressing EGFR L858R-C797S; assay: Ba/F3 EGFR cell viability (CellTiter-Glo), L858R-C797S; format: cell-based; settings: Mus musculus, read-out: CTGlo (GI50)
Description: as §4, §5

[11] = tested on: BaF3 cells expressing EGFR L858R-T790M-C797S; assay: Ba/F3 EGFR cell viability (CellTiter-Glo), L858R-T790M-C797S; format: cell-based; settings: Mus musculus, read-out: CTGlo (GI50)
Description: as §4, §5

[12] = tested on: BaF3 cells expressing wild-type EGFR; assay: Ba/F3 EGFR cell viability (CellTiter-Glo), wild-type EGFR; format: cell-based; settings: Mus musculus, Ba/F3 WT EGFR, read-out: CTGlo (GI50)
[13] = tested on: BaF3 cells expressing EGFR L858R-L718Q; assay: Ba/F3 EGFR cell viability (CellTiter-Glo), L858R-L718Q; format: cell-based; settings: Mus musculus, read-out: CTGlo (GI50)
Description: as §4, §5

[14] = tested on: BaF3 cells expressing EGFR L858R-T790M-L718Q; assay: Ba/F3 EGFR cell viability (CellTiter-Glo), L858R-T790M-L718Q; format: cell-based; settings: Mus musculus, read-out: CTGlo (GI50)
Description: as §4, §5

[15] = tested on: BaF3 cells expressing EGFR L858R-L792H; assay: Ba/F3 EGFR cell viability (CellTiter-Glo), L858R-L792H; format: cell-based; settings: Mus musculus, read-out: CTGlo (GI50)
Description: as §4, §5

[16] = tested on: BaF3 cells expressing EGFR L858R-T790M-L792H; assay: Ba/F3 EGFR cell viability (CellTiter-Glo), L858R-T790M-L792H; format: cell-based; settings: Mus musculus, read-out: CTGlo (GI50)
Description: as §4, §5

[17] = tested on: engineered triple mutant EGFR (L858R-T790M-C797S) BaF3 tumors; assay: BaF3 triple mutant EGFR allograft efficacy; format: in vivo, female BALB/c nude mice; settings: Compound 1 or 2 at 20, 50, 100 mg/kg/day PO BID; osimertinib 25 mg/kg/day PO QD; 14 days
Experimental: Each Compound was administered BID (twice a day) orally (PO).
Tumor volume was measured twice weekly in two dimensions using calipers, and volume (mm^3) was calculated using the formula: V=0.5 a×b^2 where a and b are the long and short diameters of the tumor in mm, respectively. […] Treatment began on Day 0 with established subcutaneous BaF3 tumors with a mean tumor volume (MTV) of 108 mm^3.
Body weight and MTV were measured on a 2× weekly schedule. Statistical analysis was performed using a one-way ANOVA followed by Dunnett's multiple comparison test. Data are expressed as MTV±SEM.

[18] = Table 9A, NCI-H1975 cells, Total EGFR HTRF, read-out: H1975 EGFR DC50
[19] = H1975 (L858R-T790M), read-out: tEGFR DC50

T1 sequence (P00533 25-1210 T790M/L858R): as the sequence (P00533 25-1210 T790M/L858R) above

DC50 [1, 18] [nM] | DC50 [2] [nM] | DC50 [3] [nM] | IC50 [4] [nM] | IC50 [5] [nM] | IC50 [6] [nM] | DC50 [7] [nM] | GI50 [8] [nM] | GI50 [9] [nM] | GI50 [10] [nM] | GI50 [11] [nM] | GI50 [12] [nM] | DC50 [1, 19] [nM] | GI50 [13] [nM] | GI50 [14] [nM] | GI50 [15] [nM] | GI50 [16] [nM] | SMILES | efficacy on BaF3 tumor volume [17]
< 50 | 23 | > 10000 | 12 | 19 | 22 | 22 | – | – | – | – | – | – | – | – | – | – | Cn1nc(N2CCC(=O)NC2=O)c2ccc(C3CCN(CC(=O)N4CC5(C4)CN(c4ccc(-c6cc(F)c7c(c6)C(=O)N(C(C(=O)Nc6ccccn6)c6ncn8c6CCC8)C7)cc4)C5)CC3(F)F)cc21 (stereo not drawn) [Compound 5, 2-(6,7-dihydro-5H-pyrrolo[1,2-c]imidazol-1-yl)-2-[6-[4-[2-[2-[4-[3-(2,4-dioxohexahydropyrimidin-1-yl)-1-methyl-indazol-6-yl]-3,3-difluoro-1-piperidyl]acetyl]-2,6-diazaspiro[3.3]heptan-6-yl]phenyl]-4-fluoro-1-oxo-isoindolin-2-yl]-N-(2-pyridyl)acetamide] | –
< 50 | 33 | > 10000 | 11 | 8 | 19 | 8 | 3 | 9 | 2 | 3 | 248 | – | – | – | – | – | Cn1nc(N2CCC(=O)NC2=O)c2ccc(C3CCN(CC(=O)N4CC5(C4)CN(c4ccc(-c6cc(F)c7c(c6)C(=O)N(C(C(=O)Nc6nccs6)c6ncn8c6CCC8)C7)cc4)C5)CC3(F)F)cc21 (stereo not drawn) [Compound 3, 2-(6,7-dihydro-5H-pyrrolo[1,2-c]imidazol-1-yl)-2-[6-[4-[2-[2-[4-[3-(2,4-dioxohexahydropyrimidin-1-yl)-1-methyl-indazol-6-yl]-3,3-difluoro-1-piperidyl]acetyl]-2,6-diazaspiro[3.3]heptan-6-yl]phenyl]-4-fluoro-1-oxo-isoindolin-2-yl]-N-thiazol-2-yl-acetamide] | –
< 50 | – | – | 22 | – | – | – | – | – | – | 13 | – | 23 | 2020 | 403 | 213 | 45 | O=C1CCN(c2ccc(N3CCC(O)(CC(=O)N4CC5(C4)CN(c4ccc(-c6cc(F)c7c(c6)C(=O)N(C(C(=O)Nc6nccs6)c6ncn8c6CCC8)C7)cc4)C5)CC3)c(Cl)c2)C(=O)N1 (stereo not drawn) [Compound 8, 2-[6-[4-[2-[2-[1-[2-chloro-4-(2,4-dioxohexahydropyrimidin-1-yl)phenyl]-4-hydroxy-4-piperidyl]acetyl]-2,6-diazaspiro[3.3]heptan-6-yl]phenyl]-4-fluoro-1-oxo-isoindolin-2-yl]-2-(6,7-dihydro-5H-pyrrolo[1,2-c]imidazol-1-yl)-N-thiazol-2-yl-acetamide] | –
– | – | – | – | – | – | – | – | – | – | – | – | – | – | – | – | – | C=CC(=O)Nc1cc(Nc2nccc(-c3cn(C)c4ccccc34)n2)c(OC)cc1N(C)CCN(C)C [osimertinib, reference compound] | minimal efficacy
< 50 | – | – | 17 | – | – | – | – | – | – | 10 | – | 15 | 17 | 45 | 7 | 23 | O=C1CCC(Nc2ccc(N3CCC(O)(CC(=O)N4CC5(C4)CN(c4ccc(-c6cc(F)c7c(c6)C(=O)N(C(C(=O)Nc6nccs6)c6ncn8c6CCC8)C7)cc4)C5)CC3)c(Cl)c2)C(=O)N1 (single isomer, unassigned; isomer 1) [Compound 7, 2-(6-(4-(6-(2-(1-(2-chloro-4-((2,6-dioxopiperidin-3-yl)amino)phenyl)-4-hydroxypiperidin-4-yl)acetyl)-2,6-diazaspiro[3.3]heptan-2-yl)phenyl)-4-fluoro-1-oxoisoindolin-2-yl)-2-(6,7-dihydro-5H-pyrrolo[1,2-c]imidazol-1-yl)-N-(thiazol-2-yl)acetamide, isomer 1] | –
